Measurements taken from patent US12077503B2, “Substituted cyclic amides and their use as herbicides” (FMC CORPORATION, priority 2015, dated 2024).

Experiments:
Format in all cases: in vivo
rice (Oryra sativa) = assay: Test B flooded paddy test; conditions: Oryza sativa, 250 g ai/ha, Flood; 0 to 100 scale where 0 is no effect and 100 is complete control; read-out: Rice plant response rating
Procedure, shortened: (§1)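 Evaluation by eye, against controls, occurred 13–15 d post-treatment in a greenhouse, using a 0 (no effect) to 100 (complete control) scale. Application was into the paddy water, 3 cm deep over the soil, on 2-leaf plants.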

[1] = test system: sedge, umbrella (small-flower umbrella sedge, Cyperus difformis); assay: Test B flooded paddy test; conditions: Cyperus difformis, 250 g ai/ha, Flood; 0 to 100 scale where 0 is no effect and 100 is complete control; read-out: Sedge, Umbrella plant response rating
Procedure, shortened: as §1

[2] = test system: ducksalad (Heteranthera limosa); assay: Test B flooded paddy test; conditions: Heteranthera limosa, 250 g ai/ha, Flood; 0 to 100 scale where 0 is no effect and 100 is complete control; read-out: Ducksalad plant response rating
Procedure, shortened: as §1

[3] = test system: barnyardgrass (Echinochloa crus-galli); assay: Test B flooded paddy test; conditions: Echinochloa crus-galli, 250 g ai/ha, Flood; 0 to 100 scale where 0 is no effect and 100 is complete control; read-out: Barnyardgrass plant response rating
Procedure, shortened: as §1

[4] = test system: ragweed (common ragweed, Ambrosia elatior); assay: Test A preemergence; conditions: Ambrosia artemisiifolia, pre-emergence, 240 h, 0 to 100 scale where 0 is no effect and 100 is complete control, read-out: Ragweed plant response rating; for pest or weed control at 31 g/ha: 31 g ai/ha, Preemergence; for pest or weed control at 125 g/ha: 125 g ai/ha, preemergence, approx. 10 d
Procedure, shortened: (§2)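 Preemergence directed soil spray on seeded pots, or postemergence application to plants 2–10 cm, one- to two-leaf. Solvent mixture non-phytotoxic, with surfactant. Scored ~10 d later, visually, 0–100 vs untreated.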

[5] = test system: giant foxtail (Setaria faberii); assay: Test A preemergence; conditions: Setaria faberi, pre-emergence, 240 h, 0 to 100 scale where 0 is no effect and 100 is complete control, read-out: Foxtail, Giant plant response rating; for pest or weed control at 31 g/ha: 31 g ai/ha, Preemergence; for pest or weed control at 125 g/ha: 125 g ai/ha, preemergence, approx. 10 d
Procedure, shortened: as §2

[6] = test system: ryegrass, Italian (Italian ryegrass, Lolium multiflorum); assay: Test A preemergence; conditions: Lolium multiflorum, pre-emergence, 240 h, 0 to 100 scale where 0 is no effect and 100 is complete control, read-out: Ryegrass, Italian plant response rating; for pest or weed control at 31 g/ha: 31 g ai/ha, Preemergence; for pest or weed control at 125 g/ha: 125 g ai/ha, preemergence, approx. 10 d
Procedure, shortened: as §2

[7] = test system: pigweed (Amaranthus retroflexus); assay: Test A preemergence; conditions: Amaranthus retroflexus, pre-emergence, 240 h, 0 to 100 scale where 0 is no effect and 100 is complete control, read-out: Pigweed plant response rating; for pest or weed control at 31 g/ha: 31 g ai/ha, Preemergence; for pest or weed control at 125 g/ha: 125 g ai/ha, preemergence, approx. 10 d
Kochia (Kochia scoparia) [8] = assay: Test A preemergence; conditions: Bassia scoparia, pre-emergence, 240 h, 0 to 100 scale where 0 is no effect and 100 is complete control, read-out: Kochia plant response rating; for pest or weed control at 31 g/ha: 31 g ai/ha, Preemergence; for pest or weed control at 125 g/ha: 125 g ai/ha, preemergence, approx. 10 d
Procedure, shortened: as §2

[9] = test system: barnyardgrass (Echinochloa crus-galli); assay: Test A preemergence; conditions: Echinochloa crus-galli, pre-emergence, 240 h, 0 to 100 scale where 0 is no effect and 100 is complete control, read-out: Barnyardgrass plant response rating; for pest or weed control at 31 g/ha: 31 g ai/ha, Preemergence; for pest or weed control at 125 g/ha: 125 g ai/ha, preemergence, approx. 10 d
Procedure, shortened: as §2

[10] = test system: Galium (catchweed bedstraw, Galium aparine); assay: Test A postemergence; conditions: Galium, post-emergence, 240 h; for pest or weed control at 125 g/ha: 125 g ai/ha, postemergence, visual injury on 0 to 100 scale (0 no effect, 100 complete control), approx. 10 d, read-out: Galium plant response rating; for pest or weed control at 31 g/ha: Postemergence, 31 g ai/ha, visual injury after approx. 10 d, 0 to 100 scale, 0 no effect, 100 complete control, read-out: Plant response rating, Galium
Procedure, shortened: as §2

corn (Zea mays) = assay: Test A postemergence; conditions: Zea mays, post-emergence, 240 h; for plant injury at 125 g/ha: 125 g ai/ha, postemergence, visual injury on 0 to 100 scale (0 no effect, 100 complete control), approx. 10 d, read-out: Corn plant response rating; for Corn plant response rating (crop injury, 0 = no effect, 100 = complete kill) at 31 g/ha: Postemergence, 31 g ai/ha, visual injury after approx. 10 d, 0 to 100 scale, 100 complete control
Procedure, shortened: as §2

[11] = test system: blackgrass (Alopecurus myosuroides); assay: Test A postemergence; conditions: Alopecurus myosuroides, post-emergence, 240 h; for pest or weed control at 125 g/ha: 125 g ai/ha, postemergence, visual injury on 0 to 100 scale (0 no effect, 100 complete control), approx. 10 d, read-out: Blackgrass plant response rating; for pest or weed control at 31 g/ha: Postemergence, 31 g ai/ha, visual injury after approx. 10 d, 0 to 100 scale, 0 no effect, 100 complete control, read-out: Plant response rating, Blackgrass
Procedure, shortened: as §2

[12] = test system: ragweed (common ragweed, Ambrosia elatior); assay: Test A postemergence; conditions: Ambrosia artemisiifolia, post-emergence, 240 h; for pest or weed control at 125 g/ha: 125 g ai/ha, postemergence, visual injury on 0 to 100 scale (0 no effect, 100 complete control), approx. 10 d, read-out: Ragweed plant response rating; for pest or weed control at 31 g/ha: Postemergence, 31 g ai/ha, visual injury after approx. 10 d, 0 to 100 scale, 0 no effect, 100 complete control, read-out: Plant response rating, Ragweed
Procedure, shortened: as §2

[13] = test system: giant foxtail (Setaria faberii); assay: Test A postemergence; conditions: Setaria faberi, post-emergence, 240 h; for pest or weed control at 125 g/ha: 125 g ai/ha, postemergence, visual injury on 0 to 100 scale (0 no effect, 100 complete control), approx. 10 d, read-out: Foxtail, Giant plant response rating; for pest or weed control at 31 g/ha: Postemergence, 31 g ai/ha, visual injury after approx. 10 d, 0 to 100 scale, 0 no effect, 100 complete control, read-out: Plant response rating, Foxtail, Giant
Procedure, shortened: as §2

[14] = test system: wheat (Triticum aestivum); assay: Test A postemergence; conditions: Triticum aestivum, post-emergence, 240 h; for plant injury at 125 g/ha: 125 g ai/ha, postemergence, visual injury on 0 to 100 scale (0 no effect, 100 complete control), approx. 10 d, read-out: Wheat plant response rating; for plant injury at 31 g/ha: Postemergence, 31 g ai/ha, visual injury after approx. 10 d, 0 to 100 scale, 0 no effect, 100 complete control, read-out: Plant response rating, Wheat
Procedure, shortened: as §2

[15] = test system: ryegrass, Italian (Italian ryegrass, Lolium multiflorum); assay: Test A postemergence; conditions: Lolium multiflorum, post-emergence, 240 h; for pest or weed control at 125 g/ha: 125 g ai/ha, postemergence, visual injury on 0 to 100 scale (0 no effect, 100 complete control), approx. 10 d, read-out: Ryegrass, Italian plant response rating; for pest or weed control at 31 g/ha: Postemergence, 31 g ai/ha, visual injury after approx. 10 d, 0 to 100 scale, 0 no effect, 100 complete control, read-out: Plant response rating, Ryegrass, Italian
Procedure, shortened: as §2

[16] = test system: pigweed (Amaranthus retroflexus); assay: Test A postemergence; conditions: Amaranthus retroflexus, post-emergence, 240 h; for pest or weed control at 125 g/ha: 125 g ai/ha, postemergence, visual injury on 0 to 100 scale (0 no effect, 100 complete control), approx. 10 d, read-out: Pigweed plant response rating; for pest or weed control at 31 g/ha: Postemergence, 31 g ai/ha, visual injury after approx. 10 d, 0 to 100 scale, 0 no effect, 100 complete control, read-out: Plant response rating, Pigweed
Procedure, shortened: as §2

Kochia (Kochia scoparia) [17] = assay: Test A postemergence; conditions: Bassia scoparia, post-emergence, 240 h; for pest or weed control at 125 g/ha: 125 g ai/ha, postemergence, visual injury on 0 to 100 scale (0 no effect, 100 complete control), approx. 10 d, read-out: Kochia plant response rating; for pest or weed control at 31 g/ha: Postemergence, 31 g ai/ha, visual injury after approx. 10 d, 0 to 100 scale, 0 no effect, 100 complete control, read-out: Plant response rating, Kochia
Procedure, shortened: as §2

[18] = test system: barnyardgrass (Echinochloa crus-galli); assay: Test A postemergence; conditions: Echinochloa crus-galli, post-emergence, 240 h; for pest or weed control at 125 g/ha: 125 g ai/ha, postemergence, visual injury on 0 to 100 scale (0 no effect, 100 complete control), approx. 10 d, read-out: Barnyardgrass plant response rating; for pest or weed control at 31 g/ha: Postemergence, 31 g ai/ha, visual injury after approx. 10 d, 0 to 100 scale, 0 no effect, 100 complete control, read-out: Plant response rating, Barnyardgrass
Procedure, shortened: as §2

Compound	pest or weed control at 250 g/ha (rice (Oryra sativa)) [%]	pest or weed control at 250 g/ha [1] [%]	pest or weed control at 250 g/ha [2] [%]	pest or weed control at 250 g/ha [3] [%]	pest or weed control at 31 g/ha [4] [%]	pest or weed control at 125 g/ha [4] [%]	pest or weed control at 31 g/ha [5] [%]	pest or weed control at 125 g/ha [5] [%]	pest or weed control at 31 g/ha [6] [%]	pest or weed control at 125 g/ha [6] [%]	pest or weed control at 31 g/ha [7] [%]	pest or weed control at 125 g/ha [7] [%]	pest or weed control at 31 g/ha (Kochia (Kochia scoparia) [8]) [%]	pest or weed control at 125 g/ha (Kochia (Kochia scoparia) [8]) [%]	pest or weed control at 31 g/ha [9] [%]	pest or weed control at 125 g/ha [9] [%]	pest or weed control at 125 g/ha [10] [%]	pest or weed control at 31 g/ha [10] [%]	plant injury at 125 g/ha (corn (Zea mays)) [%]	Corn plant response rating (crop injury, 0 = no effect, 100 = complete kill) at 31 g/ha (corn (Zea mays)) [%]	also measured
Cc1ccc([C@H]2CN(C)C(=O)[C@@H]2C(=O)Nc2cc(F)c(F)c(F)c2F)cc1 [Compound 1071]	0	0	98	40	0	0	90	100	0	0	0	0	0	0	40	90	0	0	0	0	pest or weed control at 125 g/ha [11]: 0%; pest or weed control at 31 g/ha [11]: 0%; pest or weed control at 125 g/ha [12]: 0%; pest or weed control at 31 g/ha [12]: 0%; pest or weed control at 125 g/ha [13]: 80%; pest or weed control at 31 g/ha [13]: 20%; plant injury at 125 g/ha [14]: 0%; plant injury at 31 g/ha [14]: 0%; pest or weed control at 125 g/ha [15]: 0%; pest or weed control at 31 g/ha [15]: 0%; pest or weed control at 125 g/ha [16]: 0%; pest or weed control at 31 g/ha [16]: 0%; pest or weed control at 125 g/ha (Kochia (Kochia scoparia) [17]): 0%; pest or weed control at 31 g/ha (Kochia (Kochia scoparia) [17]): 0%; pest or weed control at 125 g/ha [18]: 90%; pest or weed control at 31 g/ha [18]: 30%
CN1C[C@H](c2csc3c2CCCC3)[C@@H](C(=O)Nc2ccccc2S(C)(=O)=O)C1=O [Compound 1080]	15	0	40	50	0	0	0	0	0	0	0	0	0	10	0	0	0	0	0	0	pest or weed control at 125 g/ha [11]: 0%; pest or weed control at 31 g/ha [11]: 0%; pest or weed control at 125 g/ha [12]: 0%; pest or weed control at 31 g/ha [12]: 0%; pest or weed control at 125 g/ha [13]: 0%; pest or weed control at 31 g/ha [13]: 0%; plant injury at 125 g/ha [14]: 0%; plant injury at 31 g/ha [14]: 0%; pest or weed control at 125 g/ha [15]: 0%; pest or weed control at 31 g/ha [15]: 0%; pest or weed control at 125 g/ha [16]: 0%; pest or weed control at 31 g/ha [16]: 0%; pest or weed control at 125 g/ha (Kochia (Kochia scoparia) [17]): 0%; pest or weed control at 31 g/ha (Kochia (Kochia scoparia) [17]): 0%; pest or weed control at 125 g/ha [18]: 50%; pest or weed control at 31 g/ha [18]: 0%
